Measured values from ChEMBL document CHEMBL2434906, “Synthesis, characterization, and anticancer studies of S and N alkyl piperazine-substituted positional isomers of 1,2,4-triazole derivatives” (Med Chem Res, 2013).
pIC50: −log10 of the molar value.

Experiments:
Format in all cases: functional, cell-based
[1] = tested on: HL-60; experiment: Cytotoxicity against human HL60 cells after 24 hrs by MTT assay; details: HL-60, 24 h
[2] = tested on: U-937; experiment: Cytotoxicity against human U937 cells after 24 hrs by MTT assay; details: U-937, 24 h
[3] = tested on: COLO 205; experiment: Cytotoxicity against human COLO205 cells after 24 hrs by MTT assay; details: COLO 205, 24 h
[4] = tested on: THP-1; experiment: Cytotoxicity against human THP1 cells after 24 hrs by MTT assay; details: THP-1, 24 h
[5] = tested on: MCF7; experiment: Cytotoxicity against human MCF7 cells after 24 hrs by MTT assay; details: MCF7, 24 h

SMILES | pIC50 [1] | pIC50 [2] | pIC50 [3] | pIC50 [4] | pIC50 [5]
CC(C)(C)c1ccc(-c2nn(CCCN3CCN(c4cccc(Cl)c4)CC3)c(=S)[nH]2)cc1 | < 3.52 | < 3.52 | < 3.52 | < 3.52 | < 3.52
Cc1ccc(-c2nn(CCCN3CCN(c4cccc(Cl)c4)CC3)c(=S)[nH]2)cc1 | < 3.52 | < 3.52 | < 3.52 | < 3.52 | < 3.52
COc1ccc(-c2nn(CCCN3CCOCC3)c(=S)[nH]2)cc1OC | < 3.52 | < 3.52 | < 3.52 | < 3.52 | < 3.52
CCN1CCN(CCCn2nc(-c3ccc(OC)c(OC)c3)[nH]c2=S)CC1 | < 3.52 | < 3.52 | < 3.52 | < 3.52 | < 3.52
CCN1CCN(CCCSc2nnc(-c3ccc(C)cc3)[nH]2)CC1 | < 3.52 | < 3.52 | < 3.52 | < 3.52 | < 3.52
Clc1ccc(-c2nnc(SCCCN3CCN(c4cccc(Cl)c4)CC3)[nH]2)cc1 | < 3.52 | < 3.52 | < 3.52 | < 3.52 | < 3.52
CCN1CCN(CCCSc2nnc(-c3ccccc3Cl)[nH]2)CC1 | < 3.52 | < 3.52 | < 3.52 | < 3.52 | < 3.52
Clc1ccccc1-c1nnc(SCCCN2CCN(c3ccccn3)CC2)[nH]1 | < 3.52 | < 3.52 | < 3.52 | < 3.52 | < 3.52
COc1ccc(-c2nn(CCCN3CCN(c4ccccn4)CC3)c(=S)[nH]2)cc1 | 3.94 | < 3.52 | < 3.52 | < 3.52 | < 3.52
Fc1ccc(-c2nn(CCCN3CCN(Cc4ccccc4)CC3)c(=S)[nH]2)cc1 | < 3.52 | < 3.52 | 3.95 | 3.80 | 3.89
S=c1[nH]c(-c2ccc(Cl)cc2)nn1CCCN1CCN(c2cccc(Cl)c2)CC1 | 5.18 | 4.55 | < 3.52 | < 3.52 | < 3.52
CC(C)(C)c1ccc(-c2nn(CCCN3CCN(c4ccccc4)CC3)c(=S)[nH]2)cc1 | < 3.52 | 4.05 | < 3.52 | 3.83 | < 3.52
c1ccc(Cc2nnc(SCCCN3CCN(c4ccccn4)CC3)[nH]2)cc1 | < 3.52 | 3.79 | < 3.52 | < 3.52 | < 3.52
Clc1cccc(-c2nnc(SCCCN3CCN(c4ncccn4)CC3)[nH]2)c1 | 4.73 | 4.31 | < 3.52 | < 3.52 | < 3.52
Cc1cccc(-c2nnc(SCCCN3CCN(c4ccccn4)CC3)[nH]2)c1 | 4.53 | 4.28 | < 3.52 | < 3.52 | < 3.52
Cc1cccc(-c2nnc(SCCCN3CCN(c4ccccc4)CC3)[nH]2)c1 | < 3.52 | < 3.52 | < 3.52 | 3.61 | < 3.52
Fc1ccc(-c2nnc(SCCCN3CCN(Cc4ccccc4)CC3)[nH]2)cc1 | < 3.52 | 3.91 | 3.74 | 3.59 | 3.73
Clc1ccc(-c2nnc(SCCCN3CCN(c4ncccn4)CC3)[nH]2)cc1 | 3.98 | 3.99 | < 3.52 | < 3.52 | < 3.52
Cc1ccc(-c2nnc(SCCCN3CCN(c4cccc(Cl)c4)CC3)[nH]2)cc1 | < 3.52 | 3.59 | 3.86 | < 3.52 | < 3.52
CC(C)(C)c1ccc(-c2nnc(SCCCN3CCN(c4ccccc4)CC3)[nH]2)cc1 | < 3.52 | 4.31 | < 3.52 | 4.01 | < 3.52
CC(C)(C)c1ccc(-c2nnc(SCCCN3CCOCC3)[nH]2)cc1 | < 3.52 | 3.81 | 3.81 | < 3.52 | 3.54
COc1cc([C@@H]2c3cc4c(cc3[C@@H](O[C@@H]3O[C@@H]5CO[C@@H](C)O[C@H]5[C@H](O)[C@H]3O)[C@H]3COC(=O)[C@H]23)OCO4)cc(OC)c1O [ETOPOSIDE] | 5.74 | 4.98 |  |  | 4.53
